US9322066B2, “Predictors for cancer treatment” (priority 2011, dated 2016)

Test system: relapsed or refractory, rituximab-naive or -sensitive follicular B-cell NHL
Experiment: Time to next anti-lymphoma therapy, Vc-R vs rituximab study, by biomarker
Assay type: in vivo, human
Set-up: Median, Time to Next Anti-Lymphoma Therapy / Time to Next Anti-Lymphoma Therapy, Median: unit not given here
Excerpt: Non-Hodgkin lymphoma (NHL) encompasses several unique malignant lymphoid disease entities that vary in clinical behavior, morphologic appearance, immunologic, and molecular phenotype. […] A randomized, open-label, active-controlled, multicenter, multinational, prospective study to compare the efficacy and safety of the combination of bortezomib and rituximab (Vc-R) to single-agent rituximab in subjects who have relapsed or refractory, rituximab-naive or -sensitive follicular B-cell NHL was performed.
Subjects were centrally randomized to Treatment Groups A (Vc-R) or B (rituximab) in a 1:1 ratio taking into account the following stratification factors: • Follicular Lymphoma International Prognostic Index (FLIPI) score (low [0 or 1 factor], intermediate [2 factors], high [≧3 factors]); • Prior rituximab therapy (yes, no); • Time since last dose of anti-lymphoma therapy (≦1 year, >1 year); • Region (United States/Canada, European Union, Rest of World).
The following clinical endpoints were included in the analysis within each treatment group and an overall comparison was made with the biomarker-related endpoints: Progression-free survival, defined as the interval between the date of randomization and the date of progressive disease (PD) or death, whichever is first reported in the ITT population; overall survival; overall response rate (complete response [CR]+CR unconfirmed [CRu]+partial response [PR]); overall CR rate (CR+CRu); duration of response; time to next anti-lymphoma therapy; and treatment free interval.

[1] = 20S % NUCLEAR STAINING: 0-20, Female, IRC Review
[2] = 20S % NUCLEAR STAINING: 60-70, Male, IRC Review
[3] = 20S % NUCLEAR STAINING: 60-70, Prior Rituximab Therapy, IRC Review
[4] = 20S INTENSITY CYTOPLASMIC SIGNAL: ≧3+, European Union, IRC Review
[5] = 20S INTENSITY CYTOPLASMIC SIGNAL: ≧3+, Male, IRC Review
[6] = BCL2/A43G: MND, subgroup White, IRC review
[7] = BCL2/C.-11C > T: MND, subgroup White, IRC review
[8] = BCL2/E29K: MND, subgroup White, IRC review
[9] = BCL2/P46L: MND, subgroup White, IRC review
[10] = BCL2/P46S: MND, subgroup White, IRC review
[11] = BCL2/P59L: MND, subgroup White, IRC review
[12] = BCL2/P59S: MND, subgroup White, IRC review
[13] = BCL2/Q52P: MND, subgroup White, IRC review
[14] = BCL2/R106H: MND, subgroup White, IRC review
[15] = CD68 OVERALL POSITIVE: 0-25, 2 Prior Lines of Therapy, IRC Review
[16] = CD68 OVERALL POSITIVE: 0-25, >1 year since last anti-lymphoma treatment, IRC Review
[17] = CD68 OVERALL POSITIVE: 0-25, Ann Arbor Stage III, IRC Review
[18] = CD68 OVERALL POSITIVE: 0-25, Ann Arbor Stage IV, IRC Review
[19] = CD68 OVERALL POSITIVE: 0-25, European Union, IRC Review
[20] = CD68 OVERALL POSITIVE: 0-25, Female, IRC Review
[21] = CD68 OVERALL POSITIVE: 0-25, Intermediate FLIPI Score, IRC Review
[22] = CD68 OVERALL POSITIVE: 0-25, Low FLIPI Score, IRC Review
[23] = CD68 OVERALL POSITIVE: 0-25, Male, IRC Review
[24] = CD68 OVERALL POSITIVE: 0-25, No High Tumor Burden, IRC Review
[25] = CD68 OVERALL POSITIVE: 0-25, No Prior Rituximab Therapy, IRC Review
[26] = CD68 OVERALL POSITIVE: 0-25, No Subgroup, IRC Review
[27] = CD68 OVERALL POSITIVE: 0-25, Prior Rituximab Therapy, IRC Review
[28] = CD68 OVERALL POSITIVE: 0-25, White, IRC Review
[29] = CD68 OVERALL POSITIVE: 0-25, ≦65 years old, IRC Review
[30] = CD68 OVERALL POSITIVE: >75, Male, IRC Review
[31] = CD68 POSITIVE FOLLICULAR: 0-25, >1 year since last anti-lymphoma treatment, IRC Review
[32] = CD68 POSITIVE FOLLICULAR: 0-25, Ann Arbor Stage III, IRC Review
[33] = CD68 POSITIVE FOLLICULAR: 0-25, Asian, IRC Review
[34] = CD68 POSITIVE FOLLICULAR: 0-25, Female, IRC Review
[35] = CD68 POSITIVE FOLLICULAR: 0-25, Intermediate FLIPI Score, IRC Review
[36] = CD68 POSITIVE FOLLICULAR: 0-25, No High Tumor Burden, IRC Review
[37] = CD68 POSITIVE FOLLICULAR: 0-25, No Prior Rituximab Therapy, IRC Review
[38] = CD68 POSITIVE FOLLICULAR: 0-25, No Subgroup, IRC Review
[39] = CD68 POSITIVE FOLLICULAR: 0-25, White, IRC Review
[40] = CD68 POSITIVE FOLLICULAR: 0-25, ≦65 years old, IRC Review
[41] = CD68 POSITIVE PERIFOLLICULAR: 0-25, 2 Prior Lines of Therapy, IRC Review
[42] = CD68 POSITIVE PERIFOLLICULAR: 0-25, >1 year since last anti-lymphoma treatment, IRC Review
[43] = CD68 POSITIVE PERIFOLLICULAR: 0-25, Ann Arbor Stage IV, IRC Review
[44] = CD68 POSITIVE PERIFOLLICULAR: 0-25, Female, IRC Review
[45] = CD68 POSITIVE PERIFOLLICULAR: 0-25, Intermediate FLIPI Score, IRC Review
[46] = CD68 POSITIVE PERIFOLLICULAR: 0-25, No High Tumor Burden, IRC Review
[47] = CD68 POSITIVE PERIFOLLICULAR: 0-25, No Prior Rituximab Therapy, IRC Review
[48] = CD68 POSITIVE PERIFOLLICULAR: 0-25, No Subgroup, IRC Review

rituximab
Evt/N, Time to Next Anti-Lymphoma Therapy [1]: 35/61
Median, Time to Next Anti-Lymphoma Therapy [1]: 568
Evt/N, Time to Next Anti-Lymphoma Therapy [2]: 14/16
Median, Time to Next Anti-Lymphoma Therapy [2]: 247
Evt/N, Time to Next Anti-Lymphoma Therapy [3]: 17/21
Median, Time to Next Anti-Lymphoma Therapy [3]: 343
Evt/N, Time to Next Anti-Lymphoma Therapy [4]: 34/52
Median, Time to Next Anti-Lymphoma Therapy [4]: 533
Evt/N, Time to Next Anti-Lymphoma Therapy [5]: 20/27
Median, Time to Next Anti-Lymphoma Therapy [5]: 421
Median, Time to Next Anti-Lymphoma Therapy (BCL2/A43G: MND, subgroup Ann Arbor Stage IV, IRC review): 450
Evt/N, Time to Next Anti-Lymphoma Therapy [6]: 89/140
Median, Time to Next Anti-Lymphoma Therapy [6]: 504
Median, Time to Next Anti-Lymphoma Therapy (BCL2/C.-11C > T: MND, subgroup Ann Arbor Stage IV, IRC review): 450
Evt/N, Time to Next Anti-Lymphoma Therapy [7]: 110/168
Median, Time to Next Anti-Lymphoma Therapy [7]: 504
Evt/N, Time to Next Anti-Lymphoma Therapy [8]: 83/129
Median, Time to Next Anti-Lymphoma Therapy [8]: 485
Evt/N, Time to Next Anti-Lymphoma Therapy [9]: 74/117
Median, Time to Next Anti-Lymphoma Therapy [9]: 505
Evt/N, Time to Next Anti-Lymphoma Therapy [10]: 81/130
Median, Time to Next Anti-Lymphoma Therapy [10]: 505
Evt/N, Time to Next Anti-Lymphoma Therapy [11]: 80/129
Median, Time to Next Anti-Lymphoma Therapy [11]: 533
Evt/N, Time to Next Anti-Lymphoma Therapy [12]: 81/128
Median, Time to Next Anti-Lymphoma Therapy [12]: 505
Evt/N, Time to Next Anti-Lymphoma Therapy [13]: 85/135
Median, Time to Next Anti-Lymphoma Therapy [13]: 504
Evt/N, Time to Next Anti-Lymphoma Therapy [14]: 93/140
Median, Time to Next Anti-Lymphoma Therapy [14]: 501
time to next treatment interval (Biomarker positive (PSMB1 P11A heterozygote and CD68 Low)): 14.8 mo
Evt/N, Time to Next Anti-Lymphoma Therapy [15]: 6/8
Median, Time to Next Anti-Lymphoma Therapy [15]: 204
Evt/N, Time to Next Anti-Lymphoma Therapy [16]: 17/26
Median, Time to Next Anti-Lymphoma Therapy [16]: 409
Evt/N, Time to Next Anti-Lymphoma Therapy [17]: 12/16
Median, Time to Next Anti-Lymphoma Therapy [17]: 276
Evt/N, Time to Next Anti-Lymphoma Therapy [18]: 15/22
Median, Time to Next Anti-Lymphoma Therapy [18]: 434
Evt/N, Time to Next Anti-Lymphoma Therapy [19]: 14/22
Median, Time to Next Anti-Lymphoma Therapy [19]: 374
Evt/N, Time to Next Anti-Lymphoma Therapy [20]: 16/26
Median, Time to Next Anti-Lymphoma Therapy [20]: 434
Evt/N, Time to Next Anti-Lymphoma Therapy [21]: 7/11
Median, Time to Next Anti-Lymphoma Therapy [21]: 485
Evt/N, Time to Next Anti-Lymphoma Therapy [22]: 8/10
Median, Time to Next Anti-Lymphoma Therapy [22]: 422
Evt/N, Time to Next Anti-Lymphoma Therapy [23]: 14/18
Median, Time to Next Anti-Lymphoma Therapy [23]: 251
Evt/N, Time to Next Anti-Lymphoma Therapy [24]: 8/14
Median, Time to Next Anti-Lymphoma Therapy [24]: 552
Evt/N, Time to Next Anti-Lymphoma Therapy [25]: 12/19
Median, Time to Next Anti-Lymphoma Therapy [25]: 533
Evt/N, Time to Next Anti-Lymphoma Therapy [26]: 30/44
Median, Time to Next Anti-Lymphoma Therapy [26]: 409
Evt/N, Time to Next Anti-Lymphoma Therapy [27]: 18/25
Median, Time to Next Anti-Lymphoma Therapy [27]: 235
Evt/N, Time to Next Anti-Lymphoma Therapy [28]: 24/35
Median, Time to Next Anti-Lymphoma Therapy [28]: 409
Evt/N, Time to Next Anti-Lymphoma Therapy [29]: 24/34
Median, Time to Next Anti-Lymphoma Therapy [29]: 374
Evt/N, Time to Next Anti-Lymphoma Therapy (CD68 OVERALL POSITIVE: 51-75, No High Tumor Burden, IRC Review): 10/25
Evt/N, Time to Next Anti-Lymphoma Therapy [30]: 8/9
Median, Time to Next Anti-Lymphoma Therapy [30]: 427
Evt/N, Time to Next Anti-Lymphoma Therapy [31]: 22/34
Median, Time to Next Anti-Lymphoma Therapy [31]: 550
Evt/N, Time to Next Anti-Lymphoma Therapy [32]: 19/24
Median, Time to Next Anti-Lymphoma Therapy [32]: 332
Evt/N, Time to Next Anti-Lymphoma Therapy [33]: 5/6
Median, Time to Next Anti-Lymphoma Therapy [33]: 220
Evt/N, Time to Next Anti-Lymphoma Therapy [34]: 23/37
Median, Time to Next Anti-Lymphoma Therapy [34]: 462
Evt/N, Time to Next Anti-Lymphoma Therapy [35]: 14/20
Median, Time to Next Anti-Lymphoma Therapy [35]: 421
Evt/N, Time to Next Anti-Lymphoma Therapy [36]: 14/22
Median, Time to Next Anti-Lymphoma Therapy [36]: 573
Evt/N, Time to Next Anti-Lymphoma Therapy [37]: 23/36
Median, Time to Next Anti-Lymphoma Therapy [37]: 485
Evt/N, Time to Next Anti-Lymphoma Therapy [38]: 40/60
Median, Time to Next Anti-Lymphoma Therapy [38]: 462
Evt/N, Time to Next Anti-Lymphoma Therapy [39]: 32/48
Median, Time to Next Anti-Lymphoma Therapy [39]: 462
Evt/N, Time to Next Anti-Lymphoma Therapy [40]: 33/46
Median, Time to Next Anti-Lymphoma Therapy [40]: 332
Evt/N, Time to Next Anti-Lymphoma Therapy [41]: 6/8
Median, Time to Next Anti-Lymphoma Therapy [41]: 171
Evt/N, Time to Next Anti-Lymphoma Therapy [42]: 15/24
Median, Time to Next Anti-Lymphoma Therapy [42]: 533
Evt/N, Time to Next Anti-Lymphoma Therapy [43]: 11/15
Median, Time to Next Anti-Lymphoma Therapy [43]: 374
Evt/N, Time to Next Anti-Lymphoma Therapy [44]: 19/28
Median, Time to Next Anti-Lymphoma Therapy [44]: 374
Evt/N, Time to Next Anti-Lymphoma Therapy [45]: 7/13
Median, Time to Next Anti-Lymphoma Therapy [45]: 501
Evt/N, Time to Next Anti-Lymphoma Therapy [46]: 8/13
Median, Time to Next Anti-Lymphoma Therapy [46]: 501
Evt/N, Time to Next Anti-Lymphoma Therapy [47]: 12/18
Median, Time to Next Anti-Lymphoma Therapy [47]: 533
Evt/N, Time to Next Anti-Lymphoma Therapy [48]: 26/39
Median, Time to Next Anti-Lymphoma Therapy [48]: 374
